Assay results taken from PMC3774597 (Journal of biomolecular screening, 2012).

T1: isoleucyl-tRNA synthetase (IleRS) (Trypanosoma brucei, UniProt Q38A55)
T1 sequence (Q38A55 67-1143): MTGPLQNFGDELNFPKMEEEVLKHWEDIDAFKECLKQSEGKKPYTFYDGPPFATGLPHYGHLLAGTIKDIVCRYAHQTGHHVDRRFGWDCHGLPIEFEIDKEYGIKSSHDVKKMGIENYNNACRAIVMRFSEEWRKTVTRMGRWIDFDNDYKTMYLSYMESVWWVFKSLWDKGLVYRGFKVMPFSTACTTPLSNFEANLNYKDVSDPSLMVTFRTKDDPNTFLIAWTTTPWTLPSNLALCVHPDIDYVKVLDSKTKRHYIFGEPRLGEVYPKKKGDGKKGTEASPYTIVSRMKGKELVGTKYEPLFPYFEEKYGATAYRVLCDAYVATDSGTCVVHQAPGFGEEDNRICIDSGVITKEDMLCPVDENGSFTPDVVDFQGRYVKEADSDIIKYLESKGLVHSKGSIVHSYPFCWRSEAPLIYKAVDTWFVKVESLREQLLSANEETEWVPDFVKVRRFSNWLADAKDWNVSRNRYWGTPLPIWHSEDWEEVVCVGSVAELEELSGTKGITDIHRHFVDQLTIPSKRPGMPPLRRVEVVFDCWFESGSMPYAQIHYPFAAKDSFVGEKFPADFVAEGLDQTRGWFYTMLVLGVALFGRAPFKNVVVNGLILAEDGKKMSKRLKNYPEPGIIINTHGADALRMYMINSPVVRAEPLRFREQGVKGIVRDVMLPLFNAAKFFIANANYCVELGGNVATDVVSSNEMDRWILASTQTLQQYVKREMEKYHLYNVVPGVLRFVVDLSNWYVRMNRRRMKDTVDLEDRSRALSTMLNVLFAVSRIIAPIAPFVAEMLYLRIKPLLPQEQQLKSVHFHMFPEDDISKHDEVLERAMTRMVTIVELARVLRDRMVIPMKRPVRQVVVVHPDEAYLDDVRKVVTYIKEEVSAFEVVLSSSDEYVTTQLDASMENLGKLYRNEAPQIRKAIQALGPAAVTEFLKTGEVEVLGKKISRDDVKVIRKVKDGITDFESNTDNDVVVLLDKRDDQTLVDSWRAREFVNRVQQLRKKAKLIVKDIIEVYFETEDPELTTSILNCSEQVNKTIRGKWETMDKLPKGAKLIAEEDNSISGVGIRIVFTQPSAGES


How the values were obtained:
[1] = molecular target: T1, isoleucyl-tRNA synthetase (IleRS); experiment: malachite green aminoacylation assay coupled to pyrophosphatase, dose response; type: biochemical
[2] = substrate: CC[C@H](C)[C@H](N)C(=O)O; experiment: Michaelis-Menten kinetics; type: biochemical, Trypanosoma brucei

IC50 [1] | Molecule | Km [2]
600 nM | CC(C)(C)[Si](C)(C)OCC1OC(n2cnc3c(N)ncnc32)C(O)C1O (centres unmarked) [NSC616354] | 
 | isoleucyl-tRNA synthetase (IleRS) (Trypanosoma brucei brucei TREU927) (protein) MTGPLQNFGDELNFPKMEEEVLKHWEDIDAFKECLKQSEGKKPYTFYDGPPFATGLPHYGHLLAGTIKDIVCRYAHQTGHHVDRRFGWDCHGLPIEFEIDKEYGIKSSHDVKKMGIENYNNACRAIVMRFSEEWRKTVTRMGRWIDFDNDYKTMYLSYMESVWWVFKSLWDKGLVYRGFKVMPFSTACTTPLSNFEANLNYKDVSDPSLMVTFRTKDDPNTFLIAWTTTPWTLPSNLALCVHPDIDYVKVLDSKTKRHYIFGEPRLGEVYPKKKGDGKKGTEASPYTIVSRMKGKELVGTKYEPLFPYFEEKYGATAYRVLCDAYVATDSGTCVVHQAPGFGEEDNRICIDSGVITKEDMLCPVDENGSFTPDVVDFQGRYVKEADSDIIKYLESKGLVHSKGSIVHSYPFCWRSEAPLIYKAVDTWFVKVESLREQLLSANEETEWVPDFVKVRRFSNWLADAKDWNVSRNRYWGTPLPIWHSEDWEEVVCVGSVAELEELSGTKGITDIHRHFVDQLTIPSKRPGMPPLRRVEVVFDCWFESGSMPYAQIHYPFAAKDSFVGEKFPADFVAEGLDQTRGWFYTMLVLGVALFGRAPFKNVVVNGLILAEDGKKMSKRLKNYPEPGIIINTHGADALRMYMINSPVVRAEPLRFREQGVKGIVRDVMLPLFNAAKFFIANANYCVELGGNVATDVVSSNEMDRWILASTQTLQQYVKREMEKYHLYNVVPGVLRFVVDLSNWYVRMNRRRMKDTVDLEDRSRALSTMLNVLFAVSRIIAPIAPFVAEMLYLRIKPLLPQEQQLKSVHFHMFPEDDISKHDEVLERAMTRMVTIVELARVLRDRMVIPMKRPVRQVVVVHPDEAYLDDVRKVVTYIKEEVSAFEVVLSSSDEYVTTQLDASMENLGKLYRNEAPQIRKAIQALGPAAVTEFLKTGEVEVLGKKISRDDVKVIRKVKDGITDFESNTDNDVVVLLDKRDDQTLVDSWRAREFVNRVQQLRKKAKLIVKDIIEVYFETEDPELTTSILNCSEQVNKTIRGKWETMDKLPKGAKLIAEEDNSISGVGIRIVFTQPSAGES | 39.7 µM
